Target: T1, PpCHS (Physcomitrium patens, UniProt Q2VAZ3)
T1 construct: gene PHYPA_029015; homodimer ~120 kDa
Experiment: HPLC of pyrone product, UV […] nm
Format: biochemical
Conditions: hexanoyl-CoA co-substrate, 20 mM phosphate pH 7, 30 °C, 2 h; extender substrate; Trx-fusion enzyme

T1 sequence (Q2VAZ3 entry or part of it): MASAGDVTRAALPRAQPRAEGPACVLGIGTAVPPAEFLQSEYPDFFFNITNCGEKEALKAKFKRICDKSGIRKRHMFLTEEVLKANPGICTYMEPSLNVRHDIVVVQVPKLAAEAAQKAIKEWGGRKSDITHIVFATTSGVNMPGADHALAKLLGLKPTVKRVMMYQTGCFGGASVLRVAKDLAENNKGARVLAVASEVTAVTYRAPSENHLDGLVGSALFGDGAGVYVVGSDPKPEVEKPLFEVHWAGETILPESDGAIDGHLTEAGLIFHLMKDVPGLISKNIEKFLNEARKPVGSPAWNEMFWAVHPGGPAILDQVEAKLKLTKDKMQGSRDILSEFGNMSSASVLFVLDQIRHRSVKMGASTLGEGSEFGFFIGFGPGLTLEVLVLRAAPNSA

CC(C)(COP(=O)(O)OP(=O)(O)OC[C@H]1O[C@@H](n2cnc3c(N)ncnc32)[C@H](O)[C@@H]1OP(=O)(O)O)[C@@H](O)C(=O)NCCC(=O)NCCSC(=O)CC(=O)O [malonyl-CoA]
HPLC of pyrone product, UV 280 nm: HPLC Analysis of the reaction of hexanoyl-CoA and malonyl-CoA with PpCHS

— paper PMC3431822, “Enzymatic Properties and Mutational Studies of Chalcone Synthase from Physcomitrella patens” (International Journal of Molecular Sciences, 2012)
